Test results: patent publication US10172837B2, “Insulin sensitisers and methods of treatment” (NAIA Metabolic, Inc., priority 2007, dated 2019)

Tests used:
Assay type in all cases: in vivo, Mus Musculus
[1] = test system: Diet-Induced Obese (DIO) Mice; test: Fasting plasma glucose in diet-induced obese mice; conditions: for FPG Day −1: before dosing
[2] = test system: Diet-Induced Obese (DIO) Mice; test: ipGTT (glucose tolerance) in diet-induced obese mice; conditions: for AUC Day −1: before dosing
[3] = Body weight of treated diet-induced obese mice
Procedure: Male C57Bl/6J mice were obtained at 8 weeks of age from Animal Resources Centre (Canning Vale, Western Australia). Animals were individually housed and allowed free movement and ad libitum access to water and food. Animals were maintained on a 12 hour light (6 am-6 pm) and 12 hour dark (6 pm-6 am) cycle. Animals were monitored daily. Body weight, food and water intake were recorded 3 times a week.

db/db mice = test: Fasting plasma glucose in db/db mice; conditions: for FPG Day 0: Metformin 300 mg/kg group
Source text: The db/db mouse model comprises mice with a homozygous mutation of the leptin receptor gene that ablates leptin signalling in the hypothalamus and elsewhere. The db/db mouse model is commonly used to study the genetic and physiological mechanisms of obesity and type II diabetes. […] Leptin acts through the leptin receptor to control whole-body energy homeostasis by regulating both appetite and energy expenditure. Loss of function of the leptin receptor gene results in hyperphagia and slower metabolism, leading to obesity and eventually diabetes. […] Dosing solutions of the test articles: Methazolamide, Metformin and Methazolamide/Metformin were prepared fresh on each dosing day and stored at room temperature, protected from light. The compound was formulated in sterile vehicle: […] Stock solutions were prepared by dissolving the compound in NMP:PEG300 (1:2, v/v). Saline was added to the stock solution prior to administration of the compound. The solutions were mixed by vortexing immediately prior to dosing to ensure a homogeneous suspension of the compound. Male C57Bl/6J db/db mice were obtained at 10 weeks of age from Animal Resources Centre ([…], Western Australia). Animals were individually housed and allowed free movement and ad libitum access to water and food. Animals were maintained on a 12 hour light (6 am-6 pm) and 12 hour dark (6 pm-6 am) cycle. Animals were monitored daily. Body weight, food and water intake were recorded 3 times a week. Mice were fed a standard chow diet, and used after a two week acclimatisation period. […] The fasting plasma glucose levels of the animals was tested prior to commencement of the study and then every 3-4 days during dosing. The animals were fasted for a period of 4 hours after dosing and prior to the taking of a blood sample via a tail nick. Blood glucose levels were monitored using commercially available glucometers (Accuchek Advantage, Roche) based on the electric current generated when a blood drop is spotted on a test strip resulting in conversion of the glucose present in the sample to gluconolactone by the glucose dehydrogenase enzyme, in the presence of the coenzyme (PQQ).

[4] = Acetazolamide 10 mg/kg b.i.d. oral gavage
[5] = Acetazolamide 20 mg/kg b.i.d. oral gavage
[6] = Acetazolamide 50 mg/kg b.i.d. oral gavage
[7] = Chlorthalidone 10 mg/kg oral gavage
[8] = Chlorthalidone 20 mg/kg oral gavage
[9] = Chlorthalidone 50 mg/kg oral gavage
[10] = Furosemide 10 mg/kg oral gavage
[11] = Furosemide 20 mg/kg oral gavage
[12] = Furosemide 50 mg/kg oral gavage
[13] = Metformin 300 mg/kg oral gavage

## CC(=O)Nc1nnc(S(N)(=O)=O)s1 [Acetazolamide]
[1]
  effect on fasting plasma glucose levels of diet-induced obese mice: reduced the fasting plasma glucose levels
[1]; [4]
  Delta FPG Treatment Day 13 vs Day −1: −9%
  FPG Day 13: 5.76 ± 0.43 mM
  FPG Treatment vs Vehicle Day 13: −9%
[1]; Acetazolamide 10 mg/kg group
  FPG Day −1: 6.35 ± 0.5 mM
[1]; [5]
  Delta FPG Treatment Day 13 vs Day −1: −14%^2
  FPG Day 13: 5.46 ± 0.32 mM
  FPG Treatment vs Vehicle Day 13: −14%^1
[1]; Acetazolamide 20 mg/kg group
  FPG Day −1: 6.32 ± 0.42 mM
[1]; [6]
  Delta FPG Treatment Day 13 vs Day −1: −5%
  FPG Day 13: 6.28 ± 0.31 mM
  FPG Treatment vs Vehicle Day 13: −1%
[1]; Acetazolamide 50 mg/kg group
  FPG Day −1: 6.62 ± 0.38 mM
[2]
  effect on glucose tolerance of diet-induced obese mice: increased the glucose tolerance
[2]; [4]
  AUC Day 13: 944 ± 26 mM·min
  AUC Treatment vs Vehicle Day 13: −22%^2
  Delta AUC Treatment Day 13 vs Day −1: −30%^1
[2]; Acetazolamide 10 mg/kg group
  AUC Day −1: 1342 ± 88 mM·min
[2]; [5]
  AUC Day 13: 902 ± 98 mM·min
  AUC Treatment vs Vehicle Day 13: −25%^3
  Delta AUC Treatment Day 13 vs Day −1: −33%^1
[2]; Acetazolamide 20 mg/kg group
  AUC Day −1: 1340 ± 68 mM·min
[2]; [6]
  AUC Day 13: 1020 ± 144 mM·min
  AUC Treatment vs Vehicle Day 13: −15%^
  Delta AUC Treatment Day 13 vs Day −1: −23%^2
[2]; Acetazolamide 50 mg/kg group
  AUC Day −1: 1323 ± 109 mM·min
[3]; Day 0 or Day 13, DIO mice
  difference in body weight between treated groups: no difference in body weight

## NS(=O)(=O)c1cc(C2(O)NC(=O)c3ccccc32)ccc1Cl (stereo not drawn) [Chlorthalidone]
[1]
  effect on fasting plasma glucose levels of diet-induced obese mice: no beneficial effect
[1]; Chlorthalidone 10 mg/kg group
  FPG Day −1: 7.8 ± 0.31 mM
[1]; [7]
  Delta FPG Treatment Day 13 vs Day −1: 4%
  FPG Day 13: 8.08 ± 0.35 mM
  FPG Treatment vs Vehicle Day 13: 5%
[1]; Chlorthalidone 20 mg/kg group
  FPG Day −1: 7.58 ± 0.18 mM
[1]; [8]
  Delta FPG Treatment Day 13 vs Day −1: −7%
  FPG Day 13: 7.08 ± 0.31 mM
  FPG Treatment vs Vehicle Day 13: −8%
[1]; Chlorthalidone 50 mg/kg group
  FPG Day −1: 7.94 ± 0.4 mM
[1]; [9]
  Delta FPG Treatment Day 13 vs Day −1: −7%
  FPG Day 13: 7.4 ± 0.51 mM
  FPG Treatment vs Vehicle Day 13: −4%
[2]
  effect on glucose tolerance of diet-induced obese mice: no beneficial effect
[2]; Chlorthalidone 10 mg/kg group
  AUC Day −1: 1439 ± 137 mM·min
[2]; [7]
  AUC Day 13: 1660 ± 137 mM·min
  AUC Treatment vs Vehicle Day 13: 29%
  Delta AUC Treatment Day 13 vs Day −1: 15%
[2]; Chlorthalidone 20 mg/kg group
  AUC Day −1: 1416 ± 110 mM·min
[2]; [8]
  AUC Day 13: 1263 ± 75 mM·min
  AUC Treatment vs Vehicle Day 13: −2%
  Delta AUC Treatment Day 13 vs Day −1: −11%
[2]; Chlorthalidone 50 mg/kg group
  AUC Day −1: 1398 ± 87 mM·min
[2]; [9]
  AUC Day 13: 1512 ± 46 mM·min
  AUC Treatment vs Vehicle Day 13: 17%
  Delta AUC Treatment Day 13 vs Day −1: 8%

## NS(=O)(=O)c1cc(C(=O)O)c(NCc2ccco2)cc1Cl [Furosemide]
[1]; Furosemide 10 mg/kg group
  FPG Day −1: 7.28 ± 0.3 mM
[1]; [10]
  Delta FPG Treatment Day 13 vs Day −1: 24%
  FPG Day 13: 9.02 ± 0.4 mM
  FPG Treatment vs Vehicle Day 13: 4%
[1]; Furosemide 20 mg/kg group
  FPG Day −1: 7.4 ± 0.4 mM
[1]; [11]
  Delta FPG Treatment Day 13 vs Day −1: 15%
  FPG Day 13: 8.50 ± 0.4 mM
  FPG Treatment vs Vehicle Day 13: −2%
[1]; Furosemide 50 mg/kg group
  FPG Day −1: 6.78 ± 0.3 mM
[1]; [12]
  Delta FPG Treatment Day 13 vs Day −1: 20%
  FPG Day 13: 8.16 ± 0.6 mM
  FPG Treatment vs Vehicle Day 13: −6%
[3]; 100 mg/kg/d, DIO mice
  outcome of animals: had to be euthanized
[3]; 100 mg/kg/d, in 5 days, DIO mice
  body weight lost: ~6 g
[3]; DIO mice, consistent with a toxic effect
  body weight effect: substantial body weight loss

## CN(C)C(=N)N=C(N)N [Metformin]
[1]; Metformin 300 mg/kg group
  FPG Day −1: 6.1 ± 0.6 mM
[1]; [13]
  Delta FPG Treatment Day 13 vs Day −1: 11%
  Delta FPG Treatment vs Vehicle Day 13: −11%
  FPG Day 13: 6.8 ± 0.4 mM
[2]; Metformin 300 mg/kg group
  AUC Day −1: 1171 ± 81 mM·min
[2]; [13]
  AUC Day 13: 1307 ± 91 mM·min
  AUC Day 13 Treat vs Veh: 8%
  Delta AUC Day 13 vs Day −1: 12%
db/db mice; before dosing (Table 9-1)
  FPG Day 0: 23.86 ± 1.4 mM
db/db mice; before dosing (Table 9-2)
  FPG Day 0: 23.86 ± 1.4 mM
db/db mice; [13]
  Delta FPG Treatment Day 8 vs Day 0: −20%^2
  Delta FPG Treatment Day 18 vs Day 0: −16%^
  FPG Day 8: 19.10 ± 2.1 mM
  FPG Day 18: 20.01 ± 1.8 mM
  FPG Treatment vs Vehicle Day 8: −18%^
  FPG Treatment vs Vehicle Day 18: −27%^4
